What was measured:
E. coli iPGM = E. coli iPGM (Escherichia coli, UniProt P37689); assay: luminescent coupled-enzyme ATP-quantifying iPGM assay, E. coli iPGM; format: biochemical
C. elegans iPGM = molecular target: T1, C. elegans iPGM (Caenorhabditis elegans, UniProt G5EFZ1); assay: luminescent coupled-enzyme ATP-quantifying iPGM assay, C. elegans iPGM; format: biochemical
T1 sequence (G5EFZ1 1-539): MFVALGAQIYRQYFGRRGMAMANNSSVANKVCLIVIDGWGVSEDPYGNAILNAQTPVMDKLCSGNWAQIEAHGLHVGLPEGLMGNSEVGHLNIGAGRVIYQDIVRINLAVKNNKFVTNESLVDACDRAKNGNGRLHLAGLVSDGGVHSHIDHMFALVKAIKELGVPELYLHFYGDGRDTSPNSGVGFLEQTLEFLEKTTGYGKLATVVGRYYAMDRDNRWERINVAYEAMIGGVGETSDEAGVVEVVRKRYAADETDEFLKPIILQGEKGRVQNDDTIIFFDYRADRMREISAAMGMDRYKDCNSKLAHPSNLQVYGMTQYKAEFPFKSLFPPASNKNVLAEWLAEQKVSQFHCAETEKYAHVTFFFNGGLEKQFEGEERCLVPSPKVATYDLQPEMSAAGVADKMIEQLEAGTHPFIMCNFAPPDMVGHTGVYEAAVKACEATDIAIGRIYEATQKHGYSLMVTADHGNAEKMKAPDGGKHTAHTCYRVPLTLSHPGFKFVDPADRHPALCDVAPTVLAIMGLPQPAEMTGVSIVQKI

W. bancrofti iPGM = molecular target: T2, W. bancrofti iPGM (Wuchereria bancrofti, UniProt B1P0R4); assay: biochemical
T2 sequence (B1P0R4 1-515): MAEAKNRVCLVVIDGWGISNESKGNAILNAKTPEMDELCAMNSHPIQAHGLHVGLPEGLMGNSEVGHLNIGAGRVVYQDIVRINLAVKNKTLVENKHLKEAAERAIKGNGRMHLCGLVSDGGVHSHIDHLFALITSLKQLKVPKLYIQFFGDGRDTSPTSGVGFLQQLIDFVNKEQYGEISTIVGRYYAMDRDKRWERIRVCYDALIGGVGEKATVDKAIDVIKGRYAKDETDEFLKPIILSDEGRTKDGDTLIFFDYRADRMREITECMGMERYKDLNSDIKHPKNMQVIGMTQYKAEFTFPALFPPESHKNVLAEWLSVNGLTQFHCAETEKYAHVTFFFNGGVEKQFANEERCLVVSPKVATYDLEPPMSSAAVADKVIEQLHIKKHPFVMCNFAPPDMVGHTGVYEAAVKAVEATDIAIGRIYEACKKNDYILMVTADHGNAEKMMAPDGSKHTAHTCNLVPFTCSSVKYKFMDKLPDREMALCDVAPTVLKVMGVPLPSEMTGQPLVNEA

H. pylori iPGM = molecular target: T3, H. pylori iPGM (Helicobacter pylori, UniProt B5Z7X6); assay: biochemical
T3 sequence (B5Z7X6 1-491): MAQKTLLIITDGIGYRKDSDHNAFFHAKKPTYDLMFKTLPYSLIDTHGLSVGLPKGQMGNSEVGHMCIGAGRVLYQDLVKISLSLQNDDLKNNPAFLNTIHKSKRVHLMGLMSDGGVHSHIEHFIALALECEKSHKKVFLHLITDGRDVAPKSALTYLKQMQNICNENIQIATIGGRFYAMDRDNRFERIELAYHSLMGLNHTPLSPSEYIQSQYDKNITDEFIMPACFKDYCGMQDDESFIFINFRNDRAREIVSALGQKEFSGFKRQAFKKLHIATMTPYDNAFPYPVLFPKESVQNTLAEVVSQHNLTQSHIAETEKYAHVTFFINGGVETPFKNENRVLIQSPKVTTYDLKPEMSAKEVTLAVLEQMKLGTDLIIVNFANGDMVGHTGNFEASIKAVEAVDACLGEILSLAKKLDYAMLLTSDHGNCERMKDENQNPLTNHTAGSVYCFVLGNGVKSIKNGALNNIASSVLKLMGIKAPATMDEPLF

B. malayi iPGM = B. malayi iPGM (Brugia malayi, UniProt Q4VWF8); assay: luminescent coupled-enzyme ATP-quantifying iPGM assay, B. malayi iPGM; format: biochemical
B. malayi iPGM, sequence (Q4VWF8 whole entry): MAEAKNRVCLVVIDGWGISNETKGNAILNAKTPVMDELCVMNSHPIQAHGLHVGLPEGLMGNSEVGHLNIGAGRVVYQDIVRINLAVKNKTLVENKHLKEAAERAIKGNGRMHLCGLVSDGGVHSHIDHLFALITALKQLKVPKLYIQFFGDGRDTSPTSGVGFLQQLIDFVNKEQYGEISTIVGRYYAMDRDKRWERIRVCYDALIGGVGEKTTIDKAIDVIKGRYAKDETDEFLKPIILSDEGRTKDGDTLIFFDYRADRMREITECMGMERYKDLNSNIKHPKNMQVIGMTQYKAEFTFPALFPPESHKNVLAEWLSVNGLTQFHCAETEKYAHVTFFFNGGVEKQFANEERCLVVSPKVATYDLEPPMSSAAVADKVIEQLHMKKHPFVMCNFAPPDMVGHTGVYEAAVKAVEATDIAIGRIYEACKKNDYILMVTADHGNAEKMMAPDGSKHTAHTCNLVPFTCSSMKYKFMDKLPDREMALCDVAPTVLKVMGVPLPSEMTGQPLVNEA

E. coli iPGM, sequence (P37689 whole entry): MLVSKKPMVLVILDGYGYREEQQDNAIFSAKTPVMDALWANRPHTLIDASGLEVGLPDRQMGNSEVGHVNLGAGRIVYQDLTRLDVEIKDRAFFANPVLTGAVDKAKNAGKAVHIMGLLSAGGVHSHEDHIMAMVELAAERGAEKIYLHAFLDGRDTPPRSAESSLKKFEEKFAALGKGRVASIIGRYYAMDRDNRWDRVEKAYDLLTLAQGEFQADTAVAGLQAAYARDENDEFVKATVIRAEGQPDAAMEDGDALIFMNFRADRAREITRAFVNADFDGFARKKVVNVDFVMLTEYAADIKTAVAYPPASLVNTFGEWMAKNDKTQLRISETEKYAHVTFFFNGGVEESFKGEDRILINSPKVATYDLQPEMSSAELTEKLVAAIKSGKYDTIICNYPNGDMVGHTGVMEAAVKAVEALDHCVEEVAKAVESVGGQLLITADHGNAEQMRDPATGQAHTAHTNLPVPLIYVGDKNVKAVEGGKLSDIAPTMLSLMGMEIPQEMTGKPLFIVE

SMILES: CC(C)C[C@H](NC(=O)[C@H](Cc1ccc(O)cc1)NC(=O)[C@@H]1CSCC(=O)N[C@H](Cc2ccc(O)cc2)C(=O)N[C@@H](CC(=O)O)C(=O)N[C@@H](Cc2ccc(O)cc2)C(=O)N2CCC[C@H]2C(=O)NCC(=O)N[C@@H](CC(=O)O)C(=O)N[C@@H](Cc2ccc(O)cc2)C(=O)N1)C(=O)N[C@@H](Cc1ccc(O)cc1)C(=O)NCC(=O)N[C@H](C(=O)N[C@@H](CS)C(N)=O)[C@@H](C)O [Ce-2]
- AC50 (E. coli iPGM): 316 nM
- AC50 (C. elegans iPGM): 2.45 nM
- AC50 (W. bancrofti iPGM): 2.34 nM
- AC50 (H. pylori iPGM): 3630 nM
- AC50 (B. malayi iPGM): 2.69 nM
